Key:
HT-29 colon cancer cells = test: In vitro cytotoxicity, SRB assay, HT-29; assay type: cell-based, human; details: Table 2
Method: (§1) The semi-synthetic analogues of formula 1 have been subjected to in vitro cytotoxicity screening in a panel of human cancer cell lines using following methodology. The human cancer cell lines were obtained either from National Center for Cell Science, Pune or National Cancer Institute, Fredrick, Md., USA. Cells were grown in tissue culture flasks in complete growth medium (RPMI-1640 medium with 2 mM glutamine, 100 µg/ml streptomycin, pH 7.4, sterilized by filtration and supplemented with 10% sterilized fetal calf serum and 100 units/ml penicillin before use) at 37° C. in an atmosphere of 5% CO2 and 90% relative humidity in a carbon dioxide incubator. The cells at sub-confluent stage were harvested from flask by treatment with trypsin (0.05% trypsin in PBS containing 0.02% EDTA) and suspended in complete growth medium. Cells with cell viability of more than 97% by trypan blue exclusion technique were used for determination of cytotoxicity.
(§2) Test material were dissolved in DMSO (dimethyl sulphoxide) to obtain a stock solution of 2×10^−2M. The stock solution was serially diluted with complete growth medium containing 50 μg/ml of gentamycin to obtain working test solutions of required concentrations.
(§3) The suspension of human cancer cell lines of required cell density in complete growth medium was prepared and cell suspension (100 μl/well) of each cell line was added to wells of 96-well tissue culture plate. Suitable blanks and controls were also included. The plates were incubated for 24 hrs in a carbon dioxide incubator.
(§4) The working test solutions of different concentrations (100 μl/well) were added after 24 hr incubation. The plates were further incubated for 48-hrs after addition of the test materials. After incubation, the cell growth was stopped by gently layering of 50 μl of TCA (50% trichloroacetic acid) on top of the medium in all the wells. The plates were incubated at 4° C. for one hour to fix the cells attached to bottom of the wells. Liquids of all the wells were gently pipetted out and discarded. The plates were washed five times with distilled water to remove TCA, growth medium, low molecular weight metabolites, serum proteins etc. The plates were air dried.
(§5) Cell growth was measured by staining with sulforhodamine B dye (SRB). The SRB solution (100 μl, 0.4% in 1% acetic acid) was added to each well and the plates were incubated at room temperature for 30 minutes. The unbound SRB was quickly removed by washing the wells five times with 1% acetic acid solution and plates were air dried. Tris buffer (100 μl, 0.01 M, pH 10.4) was added to all the wells and plates were gently stirred for 5 minutes on a mechanical stirrer. The optical density was recorded on ELISA reader at 540 nm.
(§6) Cell growth in the presence of test material was calculated in terms of the percentage of growth inhibition. The in vitro cytotoxicity of four natural boswellic acid i.e. boswellic acid, acetyl boswellic acid, 11-keto-boswellic acids, acetyl-11-ketio-boswellic acid on various cancer cell lines has been examined and typical results are given in the succeeding table. Based on their cytotoxicity profile the analogues of formula 1 were studied for inhibition of cell proliferation by using MTT assay method. […] The induction of apoptosis in HL-60 cells was also validated by generation of DNA fragmentation.
(§7) Assay of cytotoxicity potential of test materials is a primary standard procedure for seeking lead molecules for development of anti-cancer leads. Human cancer cells after trypsinization into single cell suspension were grown in 96-well culture plate for 24 hr. Cells were treated with indicated doses of test analogues and incubated in CO2 incubator for 48 hr. Thereafter, cells were stained with sulforhodamine B dye, and the bound dye was eluted to measure the optical density indicating cell growth in Elisa Reader at 540 nm [Monks et al., 1991]. […]

[1] = system: SW-620 colon cancer cells; test: In vitro cytotoxicity, SRB assay, SW-620; assay type: cell-based, human; details: Table 2
Method: as §1, §2, §3, §4, §5, §6, §7

[2] = system: Colo-205 colon cancer cells; test: In vitro cytotoxicity, SRB assay, Colo-205; assay type: cell-based, human; details: Table 2
Method: as §1, §2, §3, §4, §5, §6, §7

Hep-2 cells = test: In vitro cytotoxicity, SRB assay, Hep-2; assay type: cell-based, human; details: Table 2
Method: as §1, §2, §3, §4, §5, §6, §7

PC-3 cells = test: In vitro cytotoxicity, SRB assay, PC-3; assay type: cell-based, human; details: Table 2
Method: as §1, §2, §3, §4, §5, §6, §7

[3] = system: Ehrlich Ascitic Carcinoma solid tumor; test: Ehrlich ascitic tumor (solid) growth inhibition in mice; assay type: in vivo, Swiss albino mice; details: 22 mg/kg intraperitoneally, 9 days, evaluated day 13, positive control
Method: FIG. 9. Tumor growth inhibition by boswellic acid analogs. Mice treated intraperitoneally with a compound (designated “c”) of formula 1, wherein R3=COCH2CH2CH3, R1=H, R4+R5=O, have shown 22% tumor growth inhibition at a dose of about 50 mg/kg of body weight, and 41% tumor growth inhibition at a dose of 100 mg/kg of body weight.
Swiss albino mice of 6-8 weeks, weighing 18-23 g of single sex were used. For the initiation of experiment, 1×10^7 cells of EAC (Ehrlich Ascitic Carcinoma) cells were transplanted intramuscularly (i.m.) in 32 mice for the development of solid tumors. The day of tumor transplantation was assigned as day 0. Next day (day-1) animals were randomly selected and divided into four groups having equal number of mice in each group of similar body wt. Groups I and II were treated with compound of formula 1 where R3=COCH2CH2CH3, R1=H, R4+R5=O at the dose of 50 mg/kg b, wt and 100 mg/kg b. wt. intraperitoneally, respectively. Group III received 0.2 ml of 0.85% normal saline and served as normal control while group IV serving as positive control was treated with 5-FU (22 mg/kg b. wt.) intraperitoneally. The total duration of treatment was of 9 days. The evaluation of effect of treatment on tumor was done on 13th day. Ehrlich ascites cells (1×10^7) were injected intramuscularly in the right thigh muscles and on the following day animals started receiving treatment intraperitoneally in 0.5% Tween-20 daily at the indicated doses for 9 days. The growth of tumor and the efficacy of compound of formula 1, where R3=COCH2CH2CH3, R1=H, R4+R5=O in inhibiting tumor growth were evaluated on day 13 in terms of the weight of the tumor in treated and control groups count. The determination of solid tumor growth inhibition against EAT was calculated as percent tumor growth regression according to the following: […]

HL-60 cells = test: Apoptosis induction, annexin V-FITC/PI flow cytometry; assay type: cell-based, human; details: HL-60, 15 μM, 6 hr
Method: FIG. 2. Comparative efficacy of apoptosis induction: Measurement by flow cytometry. The effects of boswellic acid on the relative efficiency of induction of apoptosis and necrosis in HL-60 cells were analyzed by flow cytometry. Cells were incubated with each analog for 6 hrs and stained with annexin V-FITC labeled. The dot plots are representative of one of the two separate experiments. Values in the lower right quadrant represent the apoptotic population in the UR as post-apoptotic and in the UL as necrotic. Where a=compound of formula 1, R3=COCH2CH2CH3, […], R4=[…], b=compound of formula 1, R3=COCH2CH3R1=H, R4=[…], c=compound of formula 1, R3=COCH2CH2CH3, […], R4+R5=O, d=compound of formula 1, […], R3=COCH2CH3, R4=[…], e=compound of formula 1, R3=COCH2CH2CH3, […], R4=[…], f=β-boswellic acid. Compounds of formula 1 where […], R3=COCH2CH3R3=[…]; R3=COCH2CH2CH3, […], R4=[…] and natural β-boswellic acid produced low level of apoptotic cell population (approx. 10%) compared to compound of formula 1 where R3=COCH2CH2CH3, […], R4=[…] (17%), […], R3=COCH2CH3, R4=[…] (30%) and where R3=COCH2CH2CH3, […], R4+R5=O (23%), although the combined apoptotic and post-apoptotic population was about 32% with the last three analogs. Confirmation that boswellic acid analogs are potent inducers of apoptosis may also be obtained from DNA fragmentation assay. During the early events of apoptosis, phospholipid phosphatidyl serine of plasma membrane is externalized, which has very high affinity for annexinV antibody. Effect of a single concentration (15 μM) of each boswellic acid analogs on the relative efficiency of induction of apoptosis and necrosis in HL-60 cells was analyzed by flow cytometry. Cells were incubated with each analog for 6 hr and stained with Annexin V-FITC/PI. Camptothecin at 4 μM was used as positive control. There after, cells were washed and stained with FITC conjugated annexinV antibody and propidium iodide. The cells (10,000) were analysed by flow cytometery (BD, LSR) using ProQuest software.

For O=c1[nH]cc(F)c(=O)[nH]1 [Compound 5-FU, 5-FU, reference compound], the “Growth inhibition % HT-29 Colon” value (HT-29 colon cancer cells; Conc. 1 × 10^4) was 21%, the “Growth inhibition % HT-29 Colon” value (HT-29 colon cancer cells; Conc. 1 × 10^5) was 40% and the “Growth inhibition % SW-620 Colon” value ([1]; Conc. 1 × 10^4) was 7%. For the same compound, the “Growth inhibition % SW-620 Colon” value ([1]; Conc. 1 × 10^5) was 0%, the “Growth inhibition % Colo-205 Colon” value ([2]; Conc. 1 × 10^4) was 39% and the “Growth inhibition % Colo-205 Colon” value ([2]; Conc. 1 × 10^5) was 43%. The “Growth inhibition % Hep-2” value (Hep-2 cells; Conc. 1 × 10^4) was 5%, the “Growth inhibition % Hep-2” value (Hep-2 cells; Conc. 1 × 10^5) was 14% and the “Growth inhibition % PC-3” value (PC-3 cells; Conc. 1 × 10^4) was 52%. The “Growth inhibition % PC-3” value (PC-3 cells; Conc. 1 × 10^5) was 37% and the tumor growth inhibition [3] was 56%.

CCC(=O)OC1CCC2(C)C(CCC3(C)C2CC=C2C4C(C)C(C)CCC4(C)CCC23C)C1(C)C(=O)O (stereo not drawn) [b] was tested, and the apoptotic cell population (HL-60 cells; listed as R1=H, R3=COCH2CH3R3=R4=H) was “approx. 10%”.

With CCC(=O)OC1CCC2(C)C(CCC3(C)C2CC=C2C4C(C)C(C)CCC4(C)CCC23C)C1(C)C(=O)O (stereo not drawn) [d] the “combined apoptotic and post-apoptotic population” value (HL-60 cells) was “about 32%” and the apoptotic cell population (HL-60 cells; listed as R1=H, R3=COCH2CH3, R4=R5=H) was 30%.

For C[C@H]1[C@H](C)CC[C@]2(C)CC[C@]3(C)C(=CC[C@@H]4[C@@]5(C)CC[C@@H](O)[C@](C)(C(=O)O)[C@@H]5CC[C@]43C)[C@H]12 [β-boswellic acid, reference compound], the apoptotic cell population (HL-60 cells) was “approx. 10%”.
